Source: patent US20040138488A1, “Benzene-1 2-diol mannich bases ligands polymers and method of selective metal ions removal” (priority 2001, published 2004)

Compound | melting point
COc1cccc(CN(C)CCN(C)Cc2cccc(OC)c2O)c1O [Example 12, 6,6′-Dimethoxy-2,2′-[ethylenebis(methyliminomethylene)]diphenol] | 115 to 116 °C
CCN(CCN(CC)Cc1cccc(OC)c1O)Cc1cccc(OC)c1O [Example 13, 6,6′-Dimethoxy-2,2′-[ethylenebis(ethyliminomethylene)]diphenol] | 71 to 72 °C
COc1cccc(CN(C)CCCN(C)Cc2cccc(OC)c2O)c1O [Example 14, 6,6′-Dimethoxy-2,2′-[propane-1,3-diylbis(methyliminomethylene)]diphenol] | 78 to 79 °C
COc1cccc(CN2CCN(Cc3cccc(OC)c3O)CC2)c1O [Example 15, 6,6′-Dimethoxy-2,2′-(piperazine-1,4-diylbismethylene)diphenol] | 197 to 198 °C
CN(CCCN(C)Cc1cccc(O)c1O)Cc1cccc(O)c1O [Example 19, 3,3′-[Propane-1,3-diylbis(methyliminomethylene)]di(catechol)] | 130 °C (dec.)
Oc1cccc(CN2CCN(Cc3cccc(O)c3O)CC2)c1O [Example 20, 3,3′-(Piperazine-1,4-diylbismethylene)di(catechol)] | 210 °C (dec.)
